# Laboratory results published in publication PMC11162475, “Rule-based omics mining reveals antimicrobial macrocyclic peptides against drug-resistant clinical isolates” (Nature Communications, 2024).
# Key:
# Escherichia coli DH5α = format: cell-based; details: DH5α, 20 h
# Method: (§1) For MIC determination, Staphylococcus aureus ATCC25923, Bacillus subtilis 168, Micrococcus luteus DSM1790, Enterococcus faecalis OG1RF, Enterococcus faecium MCC2763, Escherichia coli DH5α and Pseudomonas aeruginosa PAO1 were used as indicator strains. Nisin and vancomycin were used as positive controls. A dilution series of massatide A, massatide B, vancomycin (16, 8, 4, 2, 1, 0.5, 0.25, 0.125, 0.0625, 0.0313 μg/mL) and sistertide A1, kebanetide A1, kebanetide A2, nisin (64, 32, 16, 8, 4, 2, 1, 0.5, 0.25, 0.125 μg/mL) were prepared in 96-well plate from 1–10th column. The indicator strains were added to the compound-containing well. The indicator strain culture with no antibiotics was prepared in the 11th column. The 12th column was filled with 200 μL empty MHB medium. The 96-well plate was incubated at 37 °C for 20 h (30 °C for M. luteus and B. subtilis). The OD600 was detected on MULTISKAN Sky (Thermo Scientific) and MIC values were determined. The MIC values of clinical isolates were determined by Sichuan Primed Shines Bio-tech Co., Ltd. (China) following similar protocol. Levofloxacin was used as a positive control.
# [1] = tested on: tested gram-positive pathogens, including vancomycin intermediate-resistant strains; format: cell-based; details: 20 h
# Method: as §1
# [2] = tested on: Pseudomonas aeruginosa PAO1; format: cell-based; details: PAO1, 20 h
# Method: as §1
# S. aureus ATCC 25923 [3] = tested on: S. aureus ATCC 25923
# Method: was used as a negative control.
# (§2) Experiments were performed in triplicate.
# The experiment was performed in triplicate.
# S. aureus ATCC 25923 [4] = assay: Lysis of S. aureus culture; format: cell-based, Staphylococcus aureus; details: S. aureus ATCC 25923 culture OD600 1.0, 10×MIC, 24 h
# Method: (§3) Growth kinetics of S. aureus
# Massatide A or B was prepared in a 96-well plate at the concentration of 8×MIC, 4×MIC, 2×MIC, 1×MIC and 0.5×MIC , respectively. The MHB medium with no compound was used as a control. Then, the overnight culture of S. aureus ATCC 25923 cells was added to the medium at 1:1,000. The plate was incubated with shaking in SpectraMax iD3 (MOLECULAR DEVICES) at 30 ℃. OD600 was measured every 30 min for 36 hours. To analyze the lysis, 1mL of S. aureus ATCC 25923 culture (OD600 1.0) was treated with massatide A or vancomycin (10×MIC) for 24h. An untreated sample was used as a negative control. […]
# (§4) Experiments were performed in triplicate. […]
# [5] = Mammalian cytotoxicity, CCK-8 assay; format: cell-based; details: human
# Method: Bioactivity assay of the crude extract
# Protease stability of massatide A
# Thermal stability of massatide A […]
# and 1% penicillin -streptomycin. […]
# and CO 2-controllable incubator with 5% CO 2. All the cell experiments were performed […]
# Cell viability was determined by the CCK -8 assay. HeLa and Hek -293T cells were […]
# µg/ml. At the end of the fixed incubation period (24 h), cells were washed with PBS to remove excess compound. We added 100 µl fresh medium and 10 µl CCK-8 reagent.
# After 2 h incubation at 37°C, absorbance at 450 nm was recorded using a microplate reader. All experiments were performed in triplicate (n=3 independent experiments).
# as §3
# Massatide A or B was prepared in a 96-well plate at the concentration of 8×MIC, 4×MIC, 2×MIC, 1×MIC and 0.5×MIC , respectively. The MHB medium with no compound was used as a control. Then, the overnight culture of S. aureus ATCC 25923 cells was added to the medium at 1:1,000. The plate was incubated with shaking in SpectraMax iD3 (MOLECULAR DEVICES) at 30 ℃. OD600 was measured every 30 min for 36 hours. To analyze the lysis, 1mL of S. aureus ATCC 25923 culture (OD600 1.0) was treated with massatide A or vancomycin (10×MIC) for 24h. An untreated sample was used as a negative control.
# (§5) Time-dependent killing assay
# (§6) An overnight culture of S. aureus ATCC 25923 cells was diluted at 1:10,000 in MHB medium and incubated at 37 ℃, 200 rpm for 2 hours to reach the early exponential.
# (§7) Then, massatide A or vancomycin was added to the culture at the concentration of 10×MIC. Bacteria were still cultivated at 37 ℃, 200 rpm. Culture with no antibiotics was used as a negative control. 10 μL aliquots were removed at intervals, centrifuged, and resuspended in 1 ml PBS. Serially diluted (10-fold) suspensions were plated on MHB agar and incubated at 37 ℃ overnight for counting of colony-forming units.
# as §2
# Sequential culturing of S. aureus ATCC 25923 was performed in the presence of a subinhibitory concentration of massatide A to observe whether the resistance developed. […]
# S. aureus ATCC 25923 [6] = assay: Time-dependent killing assay; format: cell-based, Staphylococcus aureus; details: for log(CFU/mL) / CFU/mL: time-killing assay
# Method: as §5, §6, §7, §4
structure (smiles),measurement,setting,value
"C/C=C1\NC(=O)C(N(C)C)C(C)SC[C@@H](C(=O)N[C@H](CC)C(=O)N[C@H](C(=O)N[C@@H](C)C(=O)N[C@H](C)C(=O)N[C@@H](Cc2ccccc2)C(=O)N[C@@H](C)C(=O)NC2C(=O)NCC(=O)N[C@@H](Cc3ccc(O)cc3)C(=O)N[C@@H](Cc3ccccc3)C(=O)N[C@H](C)C(=O)N/C=C\SC2C)C(C)C)NC(=O)[C@@H]2CCCN2C(=O)[C@H](C(C)C)NC1=O (stereo partly drawn) [Massatide A (1), massatide A]",MIC,Escherichia coli DH5α,>128 µg/mL
same,MIC (potency) against tested gram-positive pathogens,[1],below 4 μg/mL
same,MIC,[2],>128 µg/mL
same,MIC to S. aureus after serial passaging,"S. aureus ATCC 25923 [3]; 25 days of serial passaging in subinhibitory concentrations, triplicate",4 µg/mL
same,change in MIC during serial passaging,S. aureus ATCC 25923 [3]; subsequent 19 days after day 6,No significant change in MIC
same,lysis of the cell culture,S. aureus ATCC 25923 [4],did not result in lysis
same,IC50 at 24 h,[5],136 µg/mL
same,"time-dependent killing, mode of killing","S. aureus ATCC 25923 [6]; S. aureus, early exponential phase, 10×MIC, 37 °C, c.f.u. counting, triplicate",bactericidal
same,log(CFU/mL),"S. aureus ATCC 25923 [6]; time 0 h, log of mean of 3 replicates",6.553 log(CFU/mL)
same,CFU/mL,"S. aureus ATCC 25923 [6]; time 0 h, mean of 3 replicates",3576667 CFU/mL
same,CFU/mL,"S. aureus ATCC 25923 [6]; time 0 h, replicate 1",2840000 CFU/mL
same,log(CFU/mL),"S. aureus ATCC 25923 [6]; time 0 h, replicate 1",6.453 log(CFU/mL)
same,CFU/mL,"S. aureus ATCC 25923 [6]; time 0 h, replicate 2",4020000 CFU/mL
same,log(CFU/mL),"S. aureus ATCC 25923 [6]; time 0 h, replicate 2",6.604 log(CFU/mL)
same,CFU/mL,"S. aureus ATCC 25923 [6]; time 0 h, replicate 3",3870000 CFU/mL
same,log(CFU/mL),"S. aureus ATCC 25923 [6]; time 0 h, replicate 3",6.588 log(CFU/mL)
same,log(CFU/mL),"S. aureus ATCC 25923 [6]; time 1 h, log of mean of 3 replicates",4.699 log(CFU/mL)
same,CFU/mL,"S. aureus ATCC 25923 [6]; time 1 h, mean of 3 replicates",50000 CFU/mL
same,CFU/mL,"S. aureus ATCC 25923 [6]; time 1 h, replicate 1",70000 CFU/mL
same,log(CFU/mL),"S. aureus ATCC 25923 [6]; time 1 h, replicate 1",4.8451 log(CFU/mL)
same,CFU/mL,"S. aureus ATCC 25923 [6]; time 1 h, replicate 2",50000 CFU/mL
same,log(CFU/mL),"S. aureus ATCC 25923 [6]; time 1 h, replicate 2",4.699 log(CFU/mL)
same,CFU/mL,"S. aureus ATCC 25923 [6]; time 1 h, replicate 3",30000 CFU/mL
same,log(CFU/mL),"S. aureus ATCC 25923 [6]; time 1 h, replicate 3",4.477 log(CFU/mL)
same,log(CFU/mL),"S. aureus ATCC 25923 [6]; time 3 h, log of mean of 3 replicates",4.176 log(CFU/mL)
same,CFU/mL,"S. aureus ATCC 25923 [6]; time 3 h, mean of 3 replicates",15000 CFU/mL
same,CFU/mL,"S. aureus ATCC 25923 [6]; time 3 h, replicate 1",10000 CFU/mL
same,log(CFU/mL),"S. aureus ATCC 25923 [6]; time 3 h, replicate 1",4 log(CFU/mL)
same,CFU/mL,"S. aureus ATCC 25923 [6]; time 3 h, replicate 2",20000 CFU/mL
same,log(CFU/mL),"S. aureus ATCC 25923 [6]; time 3 h, replicate 2",4.301 log(CFU/mL)
same,CFU/mL,"S. aureus ATCC 25923 [6]; time 3 h, replicate 3",15000 CFU/mL
same,log(CFU/mL),"S. aureus ATCC 25923 [6]; time 3 h, replicate 3",4.176 log(CFU/mL)
same,log(CFU/mL),"S. aureus ATCC 25923 [6]; time 7 h, log of mean of 3 replicates",3.921 log(CFU/mL)
same,CFU/mL,"S. aureus ATCC 25923 [6]; time 7 h, mean of 3 replicates",8333.33 CFU/mL
same,CFU/mL,"S. aureus ATCC 25923 [6]; time 7 h, replicate 1",5000 CFU/mL
same,log(CFU/mL),"S. aureus ATCC 25923 [6]; time 7 h, replicate 1",3.699 log(CFU/mL)
same,CFU/mL,"S. aureus ATCC 25923 [6]; time 7 h, replicate 2",10000 CFU/mL
same,log(CFU/mL),"S. aureus ATCC 25923 [6]; time 7 h, replicate 2",4 log(CFU/mL)
same,CFU/mL,"S. aureus ATCC 25923 [6]; time 7 h, replicate 3",10000 CFU/mL
same,log(CFU/mL),"S. aureus ATCC 25923 [6]; time 7 h, replicate 3",4 log(CFU/mL)
same,log(CFU/mL),"S. aureus ATCC 25923 [6]; time 26 h, log of mean of 3 replicates",2.049 log(CFU/mL)
same,CFU/mL,"S. aureus ATCC 25923 [6]; time 26 h, mean of 3 replicates",112 CFU/mL
same,CFU/mL,"S. aureus ATCC 25923 [6]; time 26 h, replicate 1",70 CFU/mL
same,log(CFU/mL),"S. aureus ATCC 25923 [6]; time 26 h, replicate 1",1.8451 log(CFU/mL)
same,CFU/mL,"S. aureus ATCC 25923 [6]; time 26 h, replicate 2",120 CFU/mL
same,log(CFU/mL),"S. aureus ATCC 25923 [6]; time 26 h, replicate 2",2.079 log(CFU/mL)
same,CFU/mL,"S. aureus ATCC 25923 [6]; time 26 h, replicate 3",146 CFU/mL
same,log(CFU/mL),"S. aureus ATCC 25923 [6]; time 26 h, replicate 3",2.164 log(CFU/mL)
